In paper PMC11897194 (Nature Communications, 2025):

Target: T1, EfAvs5 (Kosakonia oryzae, UniProt A0AA94GZI5)
T1 sequence (A0AA94GZI5 1-849): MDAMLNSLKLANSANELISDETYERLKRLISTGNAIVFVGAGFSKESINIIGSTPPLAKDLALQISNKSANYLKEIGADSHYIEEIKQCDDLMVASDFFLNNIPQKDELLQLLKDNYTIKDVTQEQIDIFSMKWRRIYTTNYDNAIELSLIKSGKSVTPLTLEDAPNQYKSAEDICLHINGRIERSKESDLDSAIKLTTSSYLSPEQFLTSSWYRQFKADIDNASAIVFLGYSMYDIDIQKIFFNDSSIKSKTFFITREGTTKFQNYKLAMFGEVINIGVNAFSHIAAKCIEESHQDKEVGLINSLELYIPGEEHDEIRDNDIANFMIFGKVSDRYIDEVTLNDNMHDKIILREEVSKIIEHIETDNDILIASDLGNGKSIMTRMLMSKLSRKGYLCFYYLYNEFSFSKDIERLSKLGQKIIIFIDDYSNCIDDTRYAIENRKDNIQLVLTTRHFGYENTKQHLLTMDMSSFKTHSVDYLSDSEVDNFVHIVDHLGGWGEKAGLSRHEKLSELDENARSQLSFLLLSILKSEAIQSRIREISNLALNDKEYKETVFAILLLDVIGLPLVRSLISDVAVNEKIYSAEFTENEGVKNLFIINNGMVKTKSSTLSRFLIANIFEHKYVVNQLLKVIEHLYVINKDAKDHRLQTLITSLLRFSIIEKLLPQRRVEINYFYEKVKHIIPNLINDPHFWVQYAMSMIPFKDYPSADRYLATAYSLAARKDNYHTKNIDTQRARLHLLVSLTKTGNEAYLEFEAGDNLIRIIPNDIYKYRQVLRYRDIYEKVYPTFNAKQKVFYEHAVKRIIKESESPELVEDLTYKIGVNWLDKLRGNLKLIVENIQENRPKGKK
Assay: biochemical

Structure (SMILES): Nc1ncnc2c1ncn2[C@@H]1O[C@H](COP(=O)(O)OP(=O)(O)OP(=O)(O)O)[C@@H](O)[C@H]1O [ATP]
- Ki: 1.74 ± 0.098 mM
